Counter-ions that a name gives are not always drawn.

Series [1] has as its system SARS-CoV-2 Omicron BA.4 PsV. The class given is cell-based.
A short description of series [2]: Cytotoxicity assay (CCK-8). To be noted: human, HEK293T-hACE2 cells.
The test system of another series is SARS-CoV-2 (D614) PsV. As to the kind of experiment: microbe, parasite or virus in culture. The class given is cell-based. As to conditions: for IC50: Severe acute respiratory syndrome coronavirus 2, 48 h, read-out: IC50, inhibition of SARS-CoV-2 (D614) PsV infection.
A further series concerns SARS-CoV PsV. As to the kind of experiment: microbe, parasite or virus in culture. The class given is cell-based. To be noted: Severe acute respiratory syndrome coronavirus, 48 h, read-out: IC50, inhibition of SARS-CoV PsV infection.
The next series deals with MERS-CoV PsV. The series is described as follows: microbe, parasite or virus in culture. The class given is cell-based. To be noted: Middle East respiratory syndrome-related coronavirus, 48 h, read-out: IC50, inhibition of MERS-CoV PsV infection.
The subject of a further series is SARS-CoV-2 PsV (D614). As to the kind of experiment: Time-of-addition assay. The format is cell-based. As to conditions: compound added 8 h after the addition of SARS-CoV-2 PsV.
In series [3] the test system is SARS-CoV-2 spike-pseudovirus (D614). Further details: species or system K18-hACE2 transgenic mice. As to conditions: mouse, in vivo.
The target of the next series is SARS-CoV-2 spike protein (Severe acute respiratory syndrome coronavirus 2, UniProt P0DTC2). The format is cell-based. To be noted: co-incubated with PsV 1 h, HEK293T-hACE2 cells 12 h, Western blotting. A general note: In western blotting, separated proteins are transferred to a membrane and probed.

The CC50 is the concentration giving 50% cytotoxicity. Low values mean greater toxicity to the cells, high ones lower toxicity to the cells. The term IC50 denotes the concentration that gives 50% inhibition. Consider `CC(=O)c1ccc2c(c1)N(CCCN(C)C)c1ccccc1S2` [Acepromazine maleate, acepromazine maleate], for which the “inhibitory activity in primary screening against Omicron (BA.4) PsV” value in series [1] is listed as “significant inhibitory activities”. The CC50 at 48 h in series [2] turned out to be 93300 ± 11500 nM. Besides, in the series on SARS-CoV-2 (D614) PsV, the “SI, selectivity index = CC50/IC50” value is on record as 51.179. Further, the IC50 in the series with SARS-CoV-2 (D614) PsV turned out to be 1820 ± 230 nM; with SARS-CoV PsV it was 1390 nM; in the series with MERS-CoV PsV, 1580 nM.

In the case of `CC(CN(C)C)CN1c2ccccc2Sc2ccccc21` (stereo not drawn) [Alimemazine hemitartrate, alimemazine hemitartrate], in series [2], the CC50 at 48 h turned out to be 53400 ± 10900 nM. Moreover, the “SI, selectivity index = CC50/IC50” value with SARS-CoV-2 (D614) PsV is recorded as 111.929. Besides, the IC50 in the series with SARS-CoV-2 (D614) PsV is 477 ± 124 nM; in the series with SARS-CoV PsV it was 356 nM; with MERS-CoV PsV, 1220 nM.

As to `CCCCCCCCCC(=O)OCCN1CCN(CCCN2c3ccccc3Sc3ccc(C(F)(F)F)cc32)CC1` [Fluphenazine decanoate, fluphenazine decanoate], in series [2], the midpoint of cytotoxicity, the CC50 at 48 h, lay at 61600 ± 28800 nM. For the same compound, the “SI, selectivity index = CC50/IC50” value with SARS-CoV-2 (D614) PsV was 15.775. In addition, the half-maximal inhibitory concentration (IC50) in the series with SARS-CoV-2 (D614) PsV was found to be 3900 ± 1090 nM; in the series on SARS-CoV PsV, 3960 nM; in the series with MERS-CoV PsV, 2640 nM.

In the case of `OCCN1CCN(CCCN2c3ccccc3Sc3ccc(Cl)cc32)CC1` [Perphenazine, perphenazine], the “inhibitory activity in primary screening against Omicron (BA.4) PsV” value in series [1] is reported as “significant inhibitory activities”. Moreover, the CC50 at 48 h in series [2] came to 18100 ± 1450 nM. Also, in the series with SARS-CoV-2 (D614) PsV, the “SI, selectivity index = CC50/IC50” value turned out to be 21.805. Moreover, the figures for the IC50 in the series with SARS-CoV-2 (D614) PsV, with SARS-CoV PsV and with MERS-CoV PsV were 831 ± 120 nM, 1160 nM and 1280 nM, respectively.

For the compound `CN1CCN(CCCN2c3ccccc3Sc3ccc(Cl)cc32)CC1` [Prochlorperazine maleate, prochlorperazine maleate], in the series on SARS-CoV-2 PsV (D614), the “inhibitory activity, time of addition” value was “about 20%”. Further, in series [3], the “infection, luciferase gene expression in lung tissues (RT-qPCR)” value is on record as “significantly inhibited”; the “viral load, HIV-1 Gag p55 and p24 protein levels in lung” value is “significant reduction in the viral load”. For the same compound, the CC50 at 48 h in series [2] is 85200 ± 13900 nM.

Take teicoplanin: the “effect on cleavage of S protein in cells (full-length S protein level)” value on SARS-CoV-2 spike protein is reported as “prevented the cleavage of S protein”.
